Blank lines part the entries; values can stand above or below the compound they belong to. The source made the active and inactive calls.
Legend:
[1] = target: T1, Sodium-dependent noradrenaline transporter (Homo sapiens, UniProt P23975); experiment: biochemical
[2] = target: T2, Sodium-dependent serotonin transporter (Homo sapiens, UniProt P31645); experiment: Inhibition of human SERT expressed in JAR cells assessed as serotonin uptake at 6 uM; assay type: cell-based
Target sequence in this assay (P31645 whole entry, looked up): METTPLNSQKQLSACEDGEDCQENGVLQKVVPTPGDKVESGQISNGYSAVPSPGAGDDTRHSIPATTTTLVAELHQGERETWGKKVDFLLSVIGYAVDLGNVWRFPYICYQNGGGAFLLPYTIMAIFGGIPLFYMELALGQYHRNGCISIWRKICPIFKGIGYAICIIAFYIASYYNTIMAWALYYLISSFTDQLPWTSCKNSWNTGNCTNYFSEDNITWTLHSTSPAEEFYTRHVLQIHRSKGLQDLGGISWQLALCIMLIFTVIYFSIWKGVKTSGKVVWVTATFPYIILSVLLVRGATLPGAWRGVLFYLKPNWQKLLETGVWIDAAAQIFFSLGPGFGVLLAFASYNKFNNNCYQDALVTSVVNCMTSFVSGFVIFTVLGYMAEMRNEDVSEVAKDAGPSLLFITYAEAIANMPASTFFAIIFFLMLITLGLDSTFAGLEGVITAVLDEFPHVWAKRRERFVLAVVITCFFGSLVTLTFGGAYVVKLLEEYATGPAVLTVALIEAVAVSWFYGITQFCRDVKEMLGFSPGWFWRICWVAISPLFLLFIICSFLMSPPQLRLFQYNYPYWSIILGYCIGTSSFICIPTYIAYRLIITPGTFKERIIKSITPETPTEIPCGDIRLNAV

[3] = target: T3, Sodium-dependent dopamine transporter (Homo sapiens, UniProt Q01959); experiment: biochemical
[4] = target: T1, Sodium-dependent noradrenaline transporter
[5] = target: T2, Sodium-dependent serotonin transporter; assay type: cell-based, JAR
Target sequence in this assay (P31645 whole entry): as the sequence (P31645 whole entry, looked up) above

[6] = target: T3, Sodium-dependent dopamine transporter; experiment: Displacement of [3H]-WIN-35428 from human DAT expressed in CHO cells at 1 uM; assay type: cell-based
Homo sapiens [7] = organism: Homo sapiens; experiment: Selectivity ratio of IC50 for human NET over IC50 for human SERT
[8] = Half life in rat at 10 mg/kg, po; assay type: ADME, organism-based; set-up: dose 10 mg/kg, route oral; settings: in vivo
[9] = Half life in rat at 2 mg/kg, iv; assay type: ADME, organism-based; set-up: dose 2 mg/kg, route intravenous; settings: in vivo
Rattus norvegicus [10] = experiment: Analgesic activity against FCA-induced mechanical hyperalgesia in Sprague-Dawley rat assessed as threshold to paw withdrawal at 3 mg/kg, po administered 24 hrs after FCA challenge measured after 3 hrs; assay type: functional, organism-based; set-up: dose 3 mg/kg
Rattus norvegicus [11] = experiment: Increase of serotonin level in Sprague-Dawley rat medial prefrontal cortex at 30 mg/kg, po by microdialysis assay; assay type: functional, organism-based; set-up: dose 30 mg/kg
Rattus norvegicus [12] = experiment: Analgesic activity in Sprague-Dawley rat thermally-stimulated acute pain model assessed as increase in latency to nocicfensive response at 30 mg/kg, po after 1 to 5 hrs by hot plate assay; assay type: functional, organism-based; set-up: dose 30 mg/kg
[13] = Ratio of drug level in brain to plasma in rat; assay type: ADME; settings: read-out: BPR
Rattus norvegicus [14] = experiment: Analgesic activity against carrageenan-induced hyperalgesia in Sprague-Dawley rat assessed as increase in paw withdrawal latency at 30 mg/kg, po after 4 hrs carrageenan challenge; assay type: functional, organism-based; set-up: dose 30 mg/kg
[15] = AUC (0 to infinity) in rat at 2 mg/kg, iv; assay type: ADME, organism-based; set-up: time infinity, dose 2 mg/kg, route intravenous; settings: plasma
[16] = Plasma clearance in rat at 2 mg/kg, iv; assay type: ADME, organism-based; set-up: dose 2 mg/kg, route intravenous
[17] = AUC (0 to infinity) in rat at 10 mg/kg, po; assay type: ADME, organism-based; set-up: time infinity, dose 10 mg/kg, route oral; settings: plasma
Rattus norvegicus [18] = experiment: Analgesic activity against carrageenan-induced hyperalgesia in Sprague-Dawley rat assessed as increase in paw withdrawal latency at 10 mg/kg, po after 4 hrs carrageenan challenge; assay type: functional, organism-based; set-up: dose 10 mg/kg
[19] = Volume of distribution at steady state in rat at 2 mg/kg, iv; assay type: ADME, organism-based; set-up: dose 2 mg/kg, route intravenous; settings: in vivo, read-out: Vdss
Rattus norvegicus [20] = experiment: Analgesic activity against spinal nerve ligation-induced mechanical hyperalgesia in po dosed Sprague-Dawley rat assessed as threshold to paw withdrawal; assay type: functional, organism-based
[21] = Cmax in rat at 10 mg/kg, po; assay type: ADME, organism-based; set-up: dose 10 mg/kg, route oral; settings: in vivo
Rattus norvegicus [22] = experiment: Increase of norepinephrine level in Sprague-Dawley rat medial prefrontal cortex at 30 mg/kg, po by microdialysis assay relative to baseline; assay type: functional
Rattus norvegicus [23] = experiment: Analgesic activity against FCA-induced mechanical hyperalgesia in Sprague-Dawley rat assessed as threshold to paw withdrawal at 3 mg/kg, po administered 24 hrs after FCA challenge measured after 5 hrs; assay type: functional, organism-based; set-up: dose 3 mg/kg
Rattus norvegicus [24] = experiment: Analgesic activity in Sprague-Dawley rat thermally-stimulated acute pain model assessed as increase in latency to nocicfensive response at 10 mg/kg, po after 1 to 5 hrs by hot plate assay; assay type: functional, organism-based; set-up: dose 10 mg/kg
[25] = Tmax in rat at 10 mg/kg, po; assay type: ADME, organism-based; set-up: dose 10 mg/kg, route oral; settings: in vivo
Homo sapiens [26] = organism: Homo sapiens; experiment: Selectivity ratio of IC50 for human NET over IC50 for human DAT
[27] = Oral bioavailability in rat at 10 mg/kg; assay type: ADME, organism-based; settings: in vivo

T1 sequence (P23975 whole entry): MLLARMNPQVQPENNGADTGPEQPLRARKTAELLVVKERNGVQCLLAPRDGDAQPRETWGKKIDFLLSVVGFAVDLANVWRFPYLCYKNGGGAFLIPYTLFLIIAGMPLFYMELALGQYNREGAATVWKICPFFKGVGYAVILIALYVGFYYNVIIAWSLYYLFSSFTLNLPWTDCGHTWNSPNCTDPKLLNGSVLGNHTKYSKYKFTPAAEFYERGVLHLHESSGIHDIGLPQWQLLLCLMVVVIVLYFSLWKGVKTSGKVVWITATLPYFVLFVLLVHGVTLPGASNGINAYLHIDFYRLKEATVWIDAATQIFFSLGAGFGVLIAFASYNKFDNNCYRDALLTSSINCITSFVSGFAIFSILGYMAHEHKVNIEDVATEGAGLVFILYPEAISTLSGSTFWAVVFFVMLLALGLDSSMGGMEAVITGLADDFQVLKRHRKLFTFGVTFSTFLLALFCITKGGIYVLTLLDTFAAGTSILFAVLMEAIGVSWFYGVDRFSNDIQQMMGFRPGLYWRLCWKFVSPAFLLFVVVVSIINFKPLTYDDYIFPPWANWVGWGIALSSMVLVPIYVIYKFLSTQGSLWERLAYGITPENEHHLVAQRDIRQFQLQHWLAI
T3 sequence (Q01959 whole entry): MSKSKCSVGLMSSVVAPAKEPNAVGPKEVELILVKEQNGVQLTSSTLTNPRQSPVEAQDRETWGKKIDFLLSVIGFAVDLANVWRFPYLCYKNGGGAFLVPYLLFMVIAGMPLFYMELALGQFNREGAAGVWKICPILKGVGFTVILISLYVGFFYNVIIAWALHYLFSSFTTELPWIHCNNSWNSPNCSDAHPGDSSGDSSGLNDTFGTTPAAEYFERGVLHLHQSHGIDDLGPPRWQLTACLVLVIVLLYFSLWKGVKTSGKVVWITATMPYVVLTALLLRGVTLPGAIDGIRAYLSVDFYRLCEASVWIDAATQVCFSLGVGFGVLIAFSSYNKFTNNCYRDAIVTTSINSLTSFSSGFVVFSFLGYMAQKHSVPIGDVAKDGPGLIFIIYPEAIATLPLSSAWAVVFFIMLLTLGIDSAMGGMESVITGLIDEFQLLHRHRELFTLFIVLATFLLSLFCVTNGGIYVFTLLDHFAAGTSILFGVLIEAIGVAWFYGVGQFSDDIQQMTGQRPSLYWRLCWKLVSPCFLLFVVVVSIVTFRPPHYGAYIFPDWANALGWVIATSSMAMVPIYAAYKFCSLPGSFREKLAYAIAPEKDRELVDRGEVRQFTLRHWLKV

SMILES: CNC[C@H](CCN1c2ccccc2N(c2ccccc2)S1(=O)=O)OC
IC50 [1]: 103 nM | inhibition [2]: 52% | IC50 [3]: 1040 nM

SMILES: O=S1(=O)N(CCC2CCCNC2)c2ccccc2N1c1ccccc1 (racemic)
IC50 [4]: 54 nM | IC50 [5]: 2980 nM | IC50 [1]: 30 nM | inhibition [6]: 95%

SMILES: O=S1(=O)N(CC2CNCCO2)c2ccccc2N1c1ccccc1 (racemic)
IC50 [4]: 147 nM | IC50 [1]: 74 nM | inhibition [2]: 0% | inhibition [6]: 32%

SMILES: COc1cccc(N2c3ccccc3N(CC[C@@H]3CNCCO3)S2(=O)=O)c1
IC50 [5]: 749 nM | IC50 [1]: 99 nM

SMILES: O=S1(=O)N(CCC2CNCCO2)c2ccccc2N1c1ccccc1 (racemic)
IC50 [5]: 1780 nM | IC50 [1]: 7 nM | IC50 [3]: 964 nM

SMILES: O=S1(=O)N(CC[C@@H]2CNCCO2)c2ccccc2N1c1ccc(F)cc1
IC50 [1]: 283 nM | IC50 [3]: 211 nM

SMILES: CN1CCOC(CN2c3ccccc3N(c3ccccc3)S2(=O)=O)C1 (racemic)
IC50 [1]: 2300 nM | inhibition [6]: 77%

SMILES: CNC[C@@H](CCN1c2ccccc2N(c2ccccc2)S1(=O)=O)OC
IC50 [5]: 5100 nM | IC50 [1]: 13 nM | inhibition [6]: 39%

SMILES: CNC[C@H](O)CCN1c2ccccc2N(c2ccccc2F)S1(=O)=O
inhibition [2]: 28%

SMILES: O=S1(=O)N(CC[C@@H]2CNCCO2)c2ccccc2N1c1ccccc1
IC50 [5]: 6770 nM | IC50 [1]: 5 nM | inhibition [2]: 55%

SMILES: O=S1(=O)N(C[C@@H]2CNCCO2)c2ccccc2N1c1ccccc1
IC50 [3]: 792 nM

SMILES: O=S1(=O)N(CC[C@H]2CNCCO2)c2ccccc2N1c1ccccc1
IC50 [5]: 1030 nM | IC50 [1]: 9 nM | inhibition [2]: 68%

SMILES: O=S1(=O)N(C[C@H]2CNCCO2)c2ccccc2N1c1ccccc1
IC50 [3]: 341 nM

The next lines start with results.

IC50 [4]: 7 nM | IC50 [5]: 5790 nM | IC50 [1]: 13 nM | inhibition [6]: 20%
SMILES: O=S1(=O)N(CCC2CNCCO2)c2cccc(F)c2N1c1ccccc1F (configuration not stated)

IC50 [5]: 4130 nM | IC50 [1]: 143 nM | IC50 [3]: 2040 nM
SMILES: O=S1(=O)N(CC[C@@H]2CNCCO2)c2ccccc2N1c1ccc(F)cc1F

Ratio IC50 (Homo sapiens [7]): > 430 | half-life [8]: 1.8 h | half-life [9]: 1.8 h | IC50 [4]: 15 nM | IC50 [5]: 6410 nM | Kp [13]: 3.9 | IC50 [1]: 5 nM | AUC(0-inf) [15]: 958 ng·h/mL | clearance [16]: 38 mL/min/kg | AUC(0-inf) [17]: 1320 ng·h/mL | Vd [19]: 5 L/kg | Cmax [21]: 373 ng/mL | Tmax [25]: 1 h | Ratio IC50 (Homo sapiens [26]): > 548 | bioavailability [27]: 28%
SMILES: O=S1(=O)N(CC[C@@H]2CNCCO2)c2ccccc2N1c1ccccc1F
Activity (Rattus norvegicus [10]): Active | Activity (Rattus norvegicus [11]): inactive | Activity (Rattus norvegicus [12]): Active | Activity (Rattus norvegicus [14]): Active | Activity (Rattus norvegicus [18]): Active | Activity (Rattus norvegicus [20]): Dose-dependent effect | Activity (Rattus norvegicus [22]): 390% | Activity (Rattus norvegicus [23]): Active | Activity (Rattus norvegicus [24]): Active

IC50 [4]: 22 nM | IC50 [5]: 992 nM | IC50 [1]: 5 nM | inhibition [6]: 50%
SMILES: O=S1(=O)N(CCC2CNCCO2)c2c(F)cccc2N1c1ccccc1F (configuration not stated)

IC50 [4]: 120 nM | IC50 [5]: 806 nM | IC50 [1]: 209 nM | inhibition [6]: 23%
SMILES: O=S1(=O)N(CCC2CNCCO2)c2ccc(F)cc2N1c1ccccc1F (configuration not stated)

IC50 [4]: 14 nM | IC50 [5]: 8350 nM | IC50 [1]: 8 nM | inhibition [6]: 43%
SMILES: O=S1(=O)N(CCC2CNCCO2)c2cc(F)ccc2N1c1ccccc1F (configuration not stated)

IC50 [5]: 1400 nM | IC50 [1]: 80 nM
SMILES: O=S1(=O)N(CC[C@@H]2CNCCO2)c2ccccc2N1c1c(F)cc(F)cc1F

Reference: ChEMBL document CHEMBL1828571, “Discovery of novel selective norepinephrine inhibitors: 1-(2-morpholin-2-ylethyl)-3-aryl-1,3-dihydro-2,1,3-benzothiadiazole 2,2-dioxides (WYE-114152)” (J Med Chem, 2011)
